Among the data in paper PMC3197605, “Expression, Purification and Characterization of Arginase from Helicobacter pylori in Its Apo Form” (PLoS ONE, 2011) are IC50 values, retold here.

Read-outs that look alike come from different tables or passages of the source.

In general, IC50 refers to the concentration that gives 50% inhibition.

The assay addresses T1, arginase (RocF) (Helicobacter pylori, UniProt O25949).
T1 construct: gene HP_1399; RocF with C-terminal His6 tag, apo form, expressed in E. coli BL21 (DE3)
The experiment in a line: colorimetric arginase assay (ninhydrin detection of L-ornithine), purified apo-RocF heat-activated with Co2+, pH […]. It is filed as biochemical.

T1 sequence (O25949 entry or part of it): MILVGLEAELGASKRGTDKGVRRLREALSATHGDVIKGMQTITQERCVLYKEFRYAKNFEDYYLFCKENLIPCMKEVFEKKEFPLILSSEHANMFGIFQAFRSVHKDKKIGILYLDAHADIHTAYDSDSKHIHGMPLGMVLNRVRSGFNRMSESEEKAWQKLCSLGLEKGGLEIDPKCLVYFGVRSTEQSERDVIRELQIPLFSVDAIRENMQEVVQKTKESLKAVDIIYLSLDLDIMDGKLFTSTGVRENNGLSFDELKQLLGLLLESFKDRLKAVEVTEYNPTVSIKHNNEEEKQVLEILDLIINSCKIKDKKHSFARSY

In the case of `N[C@@H](CSCCB(O)O)C(=O)O` [BEC, S-(2-boronoethyl)-L-Cysteine], 1000 µM corresponded to half-maximal inhibition (IC50).

On to `N=C(NO)NCC[C@H](N)C(=O)O` [nor-NOHA], for which the IC50 (read-out: IC50) was 500 µM.
